This note sets out measurements from ChEMBL document CHEMBL3822442, “Synthesis and Pharmacological Characterization of Novel Glucagon-like Peptide-2 (GLP-2) Analogues with Low Systemic Clearance” (J Med Chem, 2016).

Calls of active or inactive are those of the source. No cut-off for these calls is given here.

The nature of data set [1]: Systemic clearance in Sprague-Dawley rat at 0.2 mg/kg, iv through cassette dosing measured up to 300 mins by LC/MS/MS analysis. It is filed as ADME, organism-based. As to conditions: in vivo.
Data set [2] addresses T1, Glucagon-like peptide 2 receptor (Homo sapiens, UniProt O95838).
T1 sequence (O95838 whole entry): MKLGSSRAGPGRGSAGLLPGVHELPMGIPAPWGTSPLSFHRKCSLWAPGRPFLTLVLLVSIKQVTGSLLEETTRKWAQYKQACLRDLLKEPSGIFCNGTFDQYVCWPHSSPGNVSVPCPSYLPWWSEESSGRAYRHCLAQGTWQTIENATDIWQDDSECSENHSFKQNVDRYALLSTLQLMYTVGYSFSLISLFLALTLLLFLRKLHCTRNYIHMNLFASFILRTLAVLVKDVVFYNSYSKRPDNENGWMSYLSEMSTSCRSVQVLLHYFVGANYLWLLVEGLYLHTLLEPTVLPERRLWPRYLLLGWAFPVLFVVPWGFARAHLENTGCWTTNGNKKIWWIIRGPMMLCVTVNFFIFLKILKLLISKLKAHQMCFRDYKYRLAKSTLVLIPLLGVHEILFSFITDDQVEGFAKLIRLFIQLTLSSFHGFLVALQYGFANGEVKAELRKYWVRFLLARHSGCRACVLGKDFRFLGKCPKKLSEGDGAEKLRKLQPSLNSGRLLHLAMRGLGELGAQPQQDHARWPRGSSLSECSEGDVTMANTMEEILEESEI
Description: Agonist activity at human GLP2R expressed in HEK293 cells after 5 hrs by luciferase reporter gene assay. It is filed as cell-based. (In general: Reporter assays use an easily measured gene product as a stand-in for the process of interest.)

The target in data set [3] is Glucagon-like peptide 1 receptor (Homo sapiens, UniProt P43220). The data set can be described thus: Agonist activity at human GLP1R expressed in HEK293 cells after 5 hrs by luciferase reporter gene assay. Type of data set: cell-based.
In data set [4] the test system is HEK293. Description: Selectivity ratio of EC50 for human GLP1R expressed in HEK293 cells to EC50 for human GLP2R expressed in HEK293. Type of data set: cell-based.
Data set [5] has as its target Glucagon receptor (Homo sapiens) (UniProt P47871). The data set can be described thus: Agonist activity at human GCGR expressed in HEK293 cells after 5 hrs by luciferase reporter gene assay. Type of data set: cell-based.

Glucagon-like peptide 1 receptor, sequence (P43220 whole entry): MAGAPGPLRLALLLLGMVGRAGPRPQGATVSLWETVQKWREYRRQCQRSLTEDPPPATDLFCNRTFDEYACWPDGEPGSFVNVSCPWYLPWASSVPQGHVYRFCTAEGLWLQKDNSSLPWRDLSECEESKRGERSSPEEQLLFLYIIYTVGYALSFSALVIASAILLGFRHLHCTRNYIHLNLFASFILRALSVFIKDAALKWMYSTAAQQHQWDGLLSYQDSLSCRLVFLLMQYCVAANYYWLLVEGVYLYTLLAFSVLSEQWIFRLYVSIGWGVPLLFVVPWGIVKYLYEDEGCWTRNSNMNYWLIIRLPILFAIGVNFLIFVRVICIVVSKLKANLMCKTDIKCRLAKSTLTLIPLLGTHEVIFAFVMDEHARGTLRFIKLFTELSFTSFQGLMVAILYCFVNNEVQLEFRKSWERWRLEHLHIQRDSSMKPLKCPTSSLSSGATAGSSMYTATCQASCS
Glucagon receptor (Homo sapiens), sequence (P47871 whole entry): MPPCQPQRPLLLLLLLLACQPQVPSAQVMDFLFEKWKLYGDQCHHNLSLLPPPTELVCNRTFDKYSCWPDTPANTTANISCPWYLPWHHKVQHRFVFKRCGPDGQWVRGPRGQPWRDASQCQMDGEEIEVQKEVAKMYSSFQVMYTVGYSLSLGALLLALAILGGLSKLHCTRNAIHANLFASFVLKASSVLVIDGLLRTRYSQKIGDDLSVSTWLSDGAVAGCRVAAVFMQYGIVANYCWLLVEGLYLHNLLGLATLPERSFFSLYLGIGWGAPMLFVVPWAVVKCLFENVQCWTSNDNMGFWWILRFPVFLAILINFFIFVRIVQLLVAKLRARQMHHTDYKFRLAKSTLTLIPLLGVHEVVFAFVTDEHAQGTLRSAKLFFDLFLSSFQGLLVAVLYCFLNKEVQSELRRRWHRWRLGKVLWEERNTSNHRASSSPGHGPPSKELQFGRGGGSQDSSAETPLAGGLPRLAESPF

Usually clearance stands for the volume of plasma or blood freed of the substance per unit of time. A low value points to a low capacity for elimination. For orientation: EC50 means the concentration that produces a half-maximal response. Read a low EC50 as a more potent agent. In data set [1], `CCCCC(NC(=O)[C@H](CCC(=O)O)NC(=O)[C@H](CC(=O)O)NC(=O)[C@H](CO)NC(=O)[C@H](Cc1ccccc1)NC(=O)[C@H](CO)NC(=O)CNC(=O)[C@H](CC(=O)O)NC(=O)CNC(=O)[C@@H](N)Cc1cnc[nH]1)C(=O)N[C@H](Cc1cccs1)C(=O)N[C@H](C(=O)N[C@H](C(=O)N[C@@H](CC(C)C)C(=O)N[C@@H](CC(=O)O)C(=O)N[C@@H](CC(C)C)C(=O)N[C@@H](CC(C)C)C(=O)N[C@@H](C)C(=O)N[C@@H](C)C(=O)N[C@@H](CCCNC(=N)N)C(=O)N[C@@H](CC(=O)O)C(=O)N[C@@H](Cc1ccccc1)C(=O)N[C@H](C(=O)N[C@@H](CC(N)=O)C(=O)N[C@@H](Cc1c[nH]c2ccccc12)C(=O)N[C@@H](CC(C)C)C(=O)N[C@H](C(=O)N[C@@H](CCC(N)=O)C(=O)N[C@H](C(=O)N[C@@H](CCCCN)C(N)=O)[C@@H](C)O)[C@@H](C)CC)[C@@H](C)CC)[C@@H](C)CC)[C@@H](C)O` (some centres not stated) registered a clearance of 0.33 mL/min/kg. For the same molecule, the EC50 is 0.08 nM in data set [2] and more than 1000 nM in data set [3]. Also, in data set [4], the Ratio EC50 is more than 12000.

For the molecule `CCCCC(NC(=O)[C@H](CCC(=O)O)NC(=O)[C@H](CC(=O)O)NC(=O)[C@H](CO)NC(=O)[C@H](Cc1ccccc1)NC(=O)[C@H](CO)NC(=O)CNC(=O)[C@H](CC(=O)O)NC(=O)CNC(=O)[C@@H](N)Cc1cnc[nH]1)C(=O)N[C@H](Cc1cccc(Cl)c1)C(=O)N[C@H](C(=O)N[C@H](C(=O)N[C@@H](CC(C)C)C(=O)N[C@@H](CC(=O)O)C(=O)N[C@@H](CC(C)C)C(=O)N[C@@H](CC(C)C)C(=O)N[C@@H](C)C(=O)N[C@@H](C)C(=O)N[C@@H](CCCNC(=N)N)C(=O)N[C@@H](CC(=O)O)C(=O)N[C@@H](Cc1ccccc1)C(=O)N[C@H](C(=O)N[C@@H](CC(N)=O)C(=O)N[C@@H](Cc1c[nH]c2ccccc12)C(=O)N[C@@H](CC(C)C)C(=O)N[C@H](C(=O)N[C@@H](CCC(N)=O)C(=O)N[C@H](C(=O)N[C@@H](CCCCN)C(=O)N[C@H](C(=O)N[C@H](C(=O)N[C@@H](CC(=O)O)C(N)=O)[C@@H](C)O)[C@@H](C)CC)[C@@H](C)O)[C@@H](C)CC)[C@@H](C)CC)[C@@H](C)CC)[C@@H](C)O` (some centres not stated), in data set [1], the clearance was determined as 0.2 mL/min/kg. Besides, the results for the EC50 in data set [2] and in data set [3] were 0.09 nM and more than 1000 nM, respectively. Besides, the Ratio EC50 in data set [4] was more than 11000.

In data set [1], `CCCCC(NC(=O)[C@H](CCC(=O)O)NC(=O)[C@H](CC(=O)O)NC(=O)[C@H](CO)NC(=O)[C@H](Cc1ccccc1)NC(=O)[C@H](CO)NC(=O)CNC(=O)[C@H](CC(=O)O)NC(=O)CNC(=O)[C@@H](N)Cc1cnc[nH]1)C(=O)N[C@H](Cc1ccccc1)C(=O)N[C@H](C(=O)N[C@H](C(=O)N[C@@H](CC(C)C)C(=O)N[C@@H](CC(=O)O)C(=O)N[C@@H](Cc1ccccc1)C(=O)N[C@@H](CC(C)C)C(=O)N[C@@H](C)C(=O)N[C@@H](C)C(=O)N[C@@H](CCCNC(=N)N)C(=O)N[C@@H](CC(=O)O)C(=O)N[C@@H](Cc1ccccc1)C(=O)N[C@H](C(=O)N[C@@H](CC(N)=O)C(=O)N[C@@H](Cc1c[nH]c2ccccc12)C(=O)N[C@@H](CC(C)C)C(=O)N[C@H](C(=O)N[C@@H](CCC(N)=O)C(=O)N[C@H](C(=O)N[C@@H](CCCCN)C(N)=O)[C@@H](C)O)[C@@H](C)CC)[C@@H](C)CC)[C@@H](C)CC)[C@@H](C)O` (some centres not stated) came in with a clearance of 0.3 mL/min/kg. Further, the EC50 in data set [2] was 0.09 nM; in data set [3] it was more than 1000 nM. For the same molecule, the Ratio EC50 in data set [4] is more than 11000.

Consider `CCCCC(NC(=O)[C@H](CCC(=O)O)NC(=O)[C@H](CC(=O)O)NC(=O)[C@H](CO)NC(=O)[C@H](Cc1ccccc1)NC(=O)[C@H](CO)NC(=O)CNC(=O)[C@H](CC(=O)O)NC(=O)CNC(=O)[C@@H](N)Cc1cnc[nH]1)C(=O)N[C@H](Cc1cccs1)C(=O)N[C@H](C(=O)N[C@H](C(=O)N[C@@H](CC(C)C)C(=O)N[C@@H](CC(=O)O)C(=O)N[C@@H](CC(C)C)C(=O)N[C@@H](CC(C)C)C(=O)N[C@@H](C)C(=O)N[C@H](C(=O)N[C@@H](CCCNC(=N)N)C(=O)N[C@@H](CC(=O)O)C(=O)N[C@@H](Cc1ccccc1)C(=O)N[C@H](C(=O)N[C@@H](CC(N)=O)C(=O)N[C@@H](Cc1c[nH]c2ccccc12)C(=O)N[C@@H](CC(C)C)C(=O)N[C@H](C(=O)N[C@@H](CCC(N)=O)C(=O)N[C@H](C(=O)N[C@@H](CCCCN)C(=O)N[C@H](C(=O)N[C@H](C(=O)N[C@@H](CC(=O)O)C(N)=O)[C@@H](C)O)[C@@H](C)CC)[C@@H](C)O)[C@@H](C)CC)[C@@H](C)CC)[C@@H](C)O)[C@@H](C)CC)[C@@H](C)O` (some centres not stated), for which the clearance in data set [1] came to 0.28 mL/min/kg. In addition, the EC50 in data set [2] is 0.05 nM; in data set [3], more than 1000 nM. Also, the Ratio EC50 in data set [4] was more than 20000.

In the case of `CCCCC(NC(=O)[C@H](CCC(=O)O)NC(=O)[C@H](CC(=O)O)NC(=O)[C@H](CO)NC(=O)[C@H](Cc1ccccc1)NC(=O)[C@H](CO)NC(=O)CNC(=O)[C@H](CC(=O)O)NC(=O)CNC(=O)[C@@H](N)Cc1cnc[nH]1)C(=O)N[C@H](Cc1ccccc1)C(=O)N[C@H](C(=O)N[C@H](C(=O)N[C@@H](CC(C)C)C(=O)N[C@@H](CC(=O)O)C(=O)N[C@@H](CC(C)C)C(=O)N[C@@H](CC(C)C)C(=O)N[C@@H](C)C(=O)N[C@@H](C)C(=O)N[C@@H](CCCNC(=N)N)C(=O)N[C@@H](CC(=O)O)C(=O)N[C@@H](Cc1ccccc1)C(=O)N[C@H](C(=O)N[C@@H](CC(N)=O)C(=O)N[C@@H](Cc1c[nH]c2ccccc12)C(=O)N[C@@H](CC(C)C)C(=O)N[C@H](C(=O)N[C@@H](CCC(N)=O)C(=O)N[C@H](C(=O)N[C@@H](CCCCN)C(=O)N[C@H](C(=O)N[C@H](C(=O)N[C@@H](CC(=O)O)C(=O)NCc1ccccc1)[C@@H](C)O)[C@@H](C)CC)[C@@H](C)O)[C@@H](C)CC)[C@@H](C)CC)[C@@H](C)CC)[C@@H](C)O` (some centres not stated), in data set [1], the clearance was 0.1 mL/min/kg. The EC50 is 0.1 nM in data set [2] and more than 1000 nM in data set [3]. Besides, in data set [4], the Ratio EC50 was more than 10000.

Regarding `CCCCC(NC(=O)[C@H](CCC(=O)O)NC(=O)[C@H](CC(=O)O)NC(=O)[C@H](CO)NC(=O)[C@H](Cc1ccccc1)NC(=O)[C@H](CO)NC(=O)CNC(=O)[C@H](CC(=O)O)NC(=O)CNC(=O)[C@@H](N)Cc1cnc[nH]1)C(=O)N[C@H](CC(C)C)C(=O)N[C@H](C(=O)N[C@H](C(=O)N[C@@H](CC(C)C)C(=O)N[C@@H](CC(=O)O)C(=O)N[C@@H](CC(N)=O)C(=O)N[C@@H](CC(C)C)C(=O)N[C@@H](C)C(=O)N[C@@H](C)C(=O)N[C@@H](CCCNC(=N)N)C(=O)N[C@@H](CC(=O)O)C(=O)N[C@@H](Cc1ccccc1)C(=O)N[C@H](C(=O)N[C@@H](CC(N)=O)C(=O)N[C@@H](Cc1c[nH]c2ccccc12)C(=O)N[C@@H](CC(C)C)C(=O)N[C@H](C(=O)N[C@@H](CCC(N)=O)C(=O)N[C@H](C(=O)N[C@@H](CCCCN)C(N)=O)[C@@H](C)O)[C@@H](C)CC)[C@@H](C)CC)[C@@H](C)CC)[C@@H](C)O` (some centres not stated), the result in data set [5] was inactive.

Regarding `CCCCC(NC(=O)[C@H](CCC(=O)O)NC(=O)[C@H](CC(=O)O)NC(=O)[C@H](CO)NC(=O)[C@H](Cc1ccccc1)NC(=O)[C@H](CO)NC(=O)CNC(=O)[C@H](CC(=O)O)NC(=O)CNC(=O)[C@@H](N)Cc1cnc[nH]1)C(=O)N[C@H](Cc1cccs1)C(=O)N[C@H](C(=O)N[C@H](C(=O)N[C@@H](CC(C)C)C(=O)N[C@@H](CC(=O)O)C(=O)N[C@@H](Cc1ccc(O)cc1)C(=O)N[C@@H](CC(C)C)C(=O)N[C@@H](C)C(=O)N[C@@H](C)C(=O)N[C@@H](CCCNC(=N)N)C(=O)N[C@@H](CC(=O)O)C(=O)N[C@@H](Cc1ccccc1)C(=O)N[C@H](C(=O)N[C@@H](CC(N)=O)C(=O)N[C@@H](Cc1c[nH]c2ccccc12)C(=O)N[C@@H](CC(C)C)C(=O)N[C@H](C(=O)N[C@@H](CCC(N)=O)C(=O)N[C@H](C(=O)N[C@@H](CCCCN)C(N)=O)[C@@H](C)O)[C@@H](C)CC)[C@@H](C)CC)[C@@H](C)CC)[C@@H](C)O` (some centres not stated), the clearance in data set [1] is 0.52 mL/min/kg. The figures for the 50% effective concentration (EC50) in data set [2] and in data set [3] were 0.07 nM and 70 nM, respectively.

For `CCCC[C@H](NC(=O)[C@H](CCC(=O)O)NC(=O)[C@H](CC(=O)O)NC(=O)[C@H](CO)NC(=O)[C@H](Cc1ccccc1)NC(=O)[C@H](CO)NC(=O)CNC(=O)[C@H](CC(=O)O)NC(=O)CNC(=O)[C@@H](N)Cc1cnc[nH]1)C(=O)N[C@@H](CC(N)=O)C(=O)N[C@H](C(=O)N[C@H](C(=O)N[C@@H](CC(C)C)C(=O)N[C@@H](CC(=O)O)C(=O)N[C@@H](Cc1ccc(Cl)cc1)C(=O)N[C@@H](CC(C)C)C(=O)N[C@@H](C)C(=O)N[C@@H](C)C(=O)N[C@@H](CCCNC(=N)N)C(=O)N[C@@H](CC(=O)O)C(=O)N[C@@H](Cc1ccccc1)C(=O)N[C@H](C(=O)N[C@@H](CC(N)=O)C(=O)N[C@@H](Cc1c[nH]c2ccccc12)C(=O)N[C@@H](CC(C)C)C(=O)N[C@H](C(=O)N[C@@H](CCC(N)=O)C(=O)N[C@H](C(=O)N[C@@H](CCCCN)C(N)=O)[C@@H](C)O)[C@@H](C)CC)[C@@H](C)CC)[C@@H](C)CC)[C@@H](C)O`, in data set [1], the clearance was 0.67 mL/min/kg. Further, the EC50 in data set [2] is 0.22 nM; in data set [3], more than 1000 nM.
